Several values for one entry are separate records, joined by “and”; a condition that tells them apart may be missing. Equal entries are not always repeated. Where two headings read alike, the source gives them in different places.

In assay [1] the target is T1, BiP NBD (Homo sapiens, UniProt P11021). Briefly: In-cyclo NMR with ATP regeneration (E1) and phosphate removal (E2): hydrolysis rate, state populations, occupancy times. Conditions: for khydr: Fig 3 f source data: replicates [1]-[3] and average; for cycle timing: Fig 4f source data: replicates [1]-[3] and average. Format: biochemical. On the set-up: His6 (N, cleaved yes); made in house; host or cells: E. coli BL21-(DE3)-Lemo, pET28a vector. The source says:
In order to create a stable steady-state condition, we implemented two enzymatic systems inside the NMR tube to convert ADP into ATP and to remove the free phosphate, respectively. The first enzyme (E1) is pyruvate kinase, at catalytic amounts, which combines phosphoenol pyruvate (PEP) and ADP to form ATP (Fig. 3a). […] The second enzyme (E2) is sucrose phosphorylase, at catalytic amounts, which catalyzes the conversion of sucrose and phosphate into α-D-glucose-1-phosphate and D-fructose. […] To distinguish this experiment from equilibrium experiments, and highlight the unique setup to control ATP, ADP and Pi levels simultaneously, we refer to this setup as the “in-cyclo” NMR experiment.
We then set out to determine the kinetic parameters of the functional cycle. The NMR signal intensities of each of the three detected states are proportional to their population in the steady state. We integrated 51 non-overlapping independent methyl groups to obtain the population ratio pDtotal/pT, including 7 non-overlapping independent methyl groups to obtain the subpopulation ratio pD·Pi/pD.
The macroscopic hydrolysis rate khydr is experimentally determined from monitoring the pyruvate production. From there, the reaction flux f of the functional cycle results as19 f=khydrNBD0 The inverse of the hydrolysis rate is the average length of the functional cycle T.20 T=khydr−1 The flux is maintained along the cycle, resulting in the equations21 f=kcatNBD^ATP 22 f=koff4+koff5⋅NBD^ADP⋅Pi 23 f=koff2NBD^ADP+koff3NBD^Pi 24 f=kon1NBD^apoATP−koff1NBD^ATP 25 koff2NBD^ADP=koff4NBD^ADP⋅Pi
All in-cyclo NMR experiments were recorded with BiP NBD samples [U-^2H, ^15N, ^12C], Met-[^13CH3]^ε, Val-[^13CH3/^12C^2H3]^cγ1/cγ2, Ile-[^13CH3]^δ1 in NMR buffer (25 mM HEPES, pH 7.5, 150 mM KCl and 10 mM MgCl2) at a concentration of BiP NBD 100 μM. The in-cyclo ATP regeneration system was composed of 5 units of pyruvate kinase (E1) from rabbit muscle ( ≈ 200 nM; Sigma-Aldrich) and the concentration of phosphoenolpyruvate (PEP- Sigma-Aldrich) was adjusted to maintain the system active for at least four hours ([PEP] = 10–100 mM). The in-cyclo phosphate removal system was composed of 5 units of recombinant sucrose phosphorylase (E2) ( ≈ 500 nM; Sigma-Aldrich) and the concentration of sucrose (Sigma-Aldrich) was adjusted to maintain the system active for at least four hours ([Sucrose] = 10–100 mM). This experimental setup was modified as described in the text by selectively including E1 and/or E2 depending on the purpose of the experiments. All the experiments were recorded at minimum as experimental triplicates.
The in-cyclo experiment was initiated by the addition of 5 mM ATP (Sigma-Aldrich) and allowed to equilibrate at a temperature of 37 °C for 5 min in the NMR spectrometer. After the equilibration time 2D [^13C,^1H]-HMQC spectra were recorded in interleaved mode with 1D ^1H NMR spectra. […] The same setup was used for the alternative experiments by including or excluding E1 and/or E2.

Assay [2] has as its target T1, BiP NBD. Briefly: Exchange spectroscopy (EXSY) NMR of NBD apo / NBD·Pi exchange. In kind it is binding. Also on record: His6 (N, cleaved yes); made in house; host or cells: E. coli BL21-(DE3)-Lemo, pET28a vector. Conditions: 25 °C, 400 μM BiP NBD, 200 μM phosphate. The method, then: ^13C-edited 2D Exchange Spectroscopy (EXSY) experiments were acquired to characterize the exchange between the NBD apo and NDB·Pi state (k3on, k3off). For this purpose, we used a modified methyl-TROSY experiment with an additional EXSY element prior to acquisition (90° ^1H – EXSY mixing delay – 90° ^1H)[49]. A recycle delay of 1 s was used in all experiments. The EXSY mixing times were set to 5, 50, 100, 200, 300, 400, 500, 600, 800, 1000, 1250, 1500 ms, with an average acquisition time of 120 min for each spectrum. The EXSY experiments were performed at 25 °C with a [U-^2H, ^15N, ^12C], Met-[^13CH3]^ε and Ile-[^13CH3]^δ1 BiP NBD sample at 400 μM in NMR buffer (25 mM HEPES, pH 7.5, 150 mM KCl and 20 mM MgCl2) with 200 μM of phosphate.

The target in assay [3] is T1, BiP NBD. Conditions: for tADP: Supplementary Fig 16b. As to the method:
We next wanted to compare our determined kinetic rates of ADP dissociation, koff2 and koff5 , with a standard assay in the Hsp70 field that measures ADP lifetimes by ADP displacement.
The dissociation rate constants (koff) were determined by fitting the data to a one phase exponential function using a python script. […]
The red line corresponds to the mono-exponential fit of the data. […]
from 0.001 to 10 mM, in the absence of Pi (pink circles) and with 0.5 mM Pi (blue circles). Data points represent the mean for three independent experiments and the error bar represents the standard deviation. The half maximal inhibitory concentration (IC50) of Ca was calculated from three

T1 sequence (P11021 19-406): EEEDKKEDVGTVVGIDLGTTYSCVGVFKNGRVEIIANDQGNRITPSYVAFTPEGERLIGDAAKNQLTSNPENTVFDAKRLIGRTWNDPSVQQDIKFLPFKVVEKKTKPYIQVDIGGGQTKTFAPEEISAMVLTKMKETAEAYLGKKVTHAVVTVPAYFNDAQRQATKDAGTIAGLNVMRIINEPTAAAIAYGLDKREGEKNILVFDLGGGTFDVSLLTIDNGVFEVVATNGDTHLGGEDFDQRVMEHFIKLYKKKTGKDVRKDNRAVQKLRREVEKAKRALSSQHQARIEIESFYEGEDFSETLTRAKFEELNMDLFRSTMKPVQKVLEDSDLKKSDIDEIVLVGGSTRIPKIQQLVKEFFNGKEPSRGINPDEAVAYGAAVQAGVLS

The compound `Nc1ncnc2c1ncn2[C@@H]1O[C@H](COP(=O)(O)OP(=O)(O)OP(=O)(O)O)[C@@H](O)[C@H]1O` [ATP] registered an ATP consumption at BiP NBD [1] (100 μM BiP NBD, 5 mM ATP, 37 °C) of 0.15 ± 0.01 mM/min. For the same compound, the khydr at BiP NBD [1] is 1.417 min⁻¹ and 1.507 min⁻¹ and 1.488 min⁻¹; at BiP NBD [1] (mean), 1.471 min⁻¹. Moreover, the cycle timing at BiP NBD [1] was 42.34 s and 39.82 s and 40.31 s; on BiP NBD [1] (mean) it was 41 s. In addition, the “catalytic ATP hydrolysis rate kcat = tT^−1” value on BiP NBD [1] (from occupancy time of the T state) is 0.067 s⁻¹. The “average length of the functional cycle T = khydr^−1” value at BiP NBD [1] (in-cyclo, no calcium) worked out at 41 ± 2 s. Also, the “macroscopic hydrolysis rate khydr” value on BiP NBD [1] (in-cyclo, no calcium, 37 °C) is 1.47 ± 0.05 min⁻¹.

Take `O=P(O)(O)O` [Pi]: on BiP NBD [2], the “koff3 (EXSY)” value worked out at 1.32 ± 0.31 s⁻¹ and the “kon3 (EXSY)” value was 5000 ± 2000 M⁻¹ s⁻¹.

`[Ca+2]` [calcium]: the tADP at BiP NBD [3] (Calcium 0.1 μM, second series ([Pi] 0.5 mM)) stood at 52.28 s; at BiP NBD [3] (Calcium 0.1 μM, series without added Pi), 15.3 s; at BiP NBD [3] (Calcium 0.5 μM, second series ([Pi] 0.5 mM)), 45.66 s; at BiP NBD [3] (Calcium 0.5 μM, series without added Pi), 12.1 s; at BiP NBD [3] (Calcium 1 μM, second series ([Pi] 0.5 mM)), 50.78 s; at BiP NBD [3] (Calcium 1 μM, series without added Pi), 12.7 s. The tADP at BiP NBD [3] (Calcium 5 μM, second series ([Pi] 0.5 mM)) came out at 54.19 s; at BiP NBD [3] (Calcium 5 μM, series without added Pi), 15.7 s; at BiP NBD [3] (Calcium 10 μM, second series ([Pi] 0.5 mM)) it was 50.03 s; on BiP NBD [3] (Calcium 10 μM, series without added Pi), 12.2 s; on BiP NBD [3] (Calcium 25 μM, series without added Pi) it was 16.2 s; at BiP NBD [3] (Calcium 50 μM, second series ([Pi] 0.5 mM)), 54.42 s. Also, the tADP was 16.2 s on BiP NBD [3] (Calcium 50 μM, series without added Pi); 16.9 s at BiP NBD [3] (Calcium 75 μM, series without added Pi); 49.18 s on BiP NBD [3] (Calcium 100 μM, second series ([Pi] 0.5 mM)); 18.0 s on BiP NBD [3] (Calcium 100 μM, series without added Pi); 19.5 s at BiP NBD [3] (Calcium 125 μM, series without added Pi); 22.4 s on BiP NBD [3] (Calcium 150 μM, series without added Pi). In addition, the tADP at BiP NBD [3] (Calcium 175 μM, series without added Pi) turned out to be 21.2 s; on BiP NBD [3] (Calcium 200 μM, series without added Pi), 30.8 s; on BiP NBD [3] (Calcium 300 μM, series without added Pi) it was 33.0 s; at BiP NBD [3] (Calcium 400 μM, series without added Pi), 36.0 s; at BiP NBD [3] (Calcium 500 μM, second series ([Pi] 0.5 mM)), 44.74 s; at BiP NBD [3] (Calcium 500 μM, series without added Pi), 38.8 s. For the same compound, the tADP at BiP NBD [3] (Calcium 1000 μM, second series ([Pi] 0.5 mM)) is given as 48.65 s; at BiP NBD [3] (Calcium 1000 μM, series without added Pi), 39.9 s; on BiP NBD [3] (Calcium 5000 μM, second series ([Pi] 0.5 mM)) it was 49.79 s; at BiP NBD [3] (Calcium 5000 μM, series without added Pi) it was 41.9 s. On BiP NBD [3] (in the presence of 0.5 mM phosphate), the “lifetime of bound ADP·Pi versus calcium concentration” value is given as “completely independent of the calcium concentration”. Moreover, the IC50 on BiP NBD [3] (read-out: IC50 (ADP mean life as a function of calcium concentration), MABA-ADP release, no Pi, fixed 10 mM magnesium, calcium 0.001 to 10 mM) came to 212 ± 7 µM.

The values above are taken from paper PMC12126525, “Mechanism of ATP hydrolysis in the Hsp70 BiP nucleotide-binding domain” (Nature Communications, 2025).
